# From patent publication US20110263478A1, “SUR1 INHIBITORS FOR THERAPY” (priority 2008, published 2011)
# Columns and labels:
# [1] = tested on: rats with spinal cord injury (SCI); assay: Rat cervical SCI model: neurobehavioral assessment (inclined plane, paw placement, rearing); type: in vivo
# Experimental: SCI injury model. This study was performed in accordance with the guidelines of the Institutional Animal Care and Use Committee. Adult female Long-Evans rats (275-350 gm) were anesthetized (Ketamine, 60 mg/kg plus Xylazine, 7.5 mg/kg, i.p.). The dura at C4-5 was exposed via a left hemilaminectomy. A hemi-cervical spinal cord contusion was created using a blunt force impactor (1.3-mm impactor head driven by a 10 gm weight dropped vertically 25 mm) (Soblo sky et al., 2001; Gensel et al., 2006). After SCI, animals were given 10 ml of glucose-free normal saline s.q. Rectal temperature was maintained at ˜37° C. using a servo-controlled warming blanket.
# For in vivo gene suppression of SUR1, we used oligodeoxynucleotides that were phosphorothioated at 4 distal bonds to protect against endogenous nucleases (35).
# Neurobehavioral assessment. All measurements were performed by blinded evaluators. Performance on the inclined plane was evaluated as described (Rivlin and Tator, 1977). To assess paw placement and vertical exploration (rearing) (Nikulina et al., 2004) animals were videotaped while in a translucent cylinder (19×20 cm). Rearing was quantified as the number of seconds spent with both front paws elevated above shoulder-height during a 3-min period of observation.
# [2] = male, Long-Evans, rat, in vivo
# Description: (§1) Young adult male Long-Evans rats, 240-280 gm, were studied. Rats were anesthetized (Ketamine and Xylazine) and physiological parameters including temperature and blood gases were maintained within appropriate physiological ranges. With the head fixed in a stereotaxic frame, a 6-mm circular craniectomy was created abutting the sagittal and lambdoidal sutures. A posterior location was chosen to emphasize damage to underlying hippocampus (Vink et al., 2001; Floyd et al., 2002). […] Sham controls underwent craniectomy without percussion.
# rats with percussion-TBI = assay: Percussion-TBI rats: lesion size and hippocampal histology; type: in vivo, rat; details: 7 days post-TBI
# Description: as §1
# [3] = tested on: rats with subarachnoid hemorrhage (SAH); assay: Rat SAH model: immunohistochemistry of inferomedial cortex and posterior cerebral artery; type: in vivo; details: 24 hr after SAH
# Experimental: Model of SAH. All surgical procedures were approved by the Institutional Animal Care and Use Committee of the University of Maryland. […] Fasted male Wistar rats (225-275 gm; Harlan, Indianapolis, Ind.) were anesthetized (ketamine, 60 mg/kg and xylazine, 7.5 mg/kg, intraperitoneally) and allowed to ventilate air spontaneously. Temperature was maintained at 37° C. using a heating pad regulated by a rectal temperature sensor (Harvard Apparatus, Holliston, M A). The laser Doppler flowmetry (LDF) probe (MoorLab, Moore Instruments, Sussex, UK) was affixed to the skull. The right carotid sheath was exposed through a ventral midline incision, the common, external and internal carotid arteries (CCA, ECA, ICA) were dissected, and the pterygopalatine artery was ligated. Typical blood gases (i-STAT, Heska Corp, Fort Collins, Colo.), sampled from the CCA before injury, were pO2>90 mm Hg, pCO2<47 mm Hg, and glucose 150-200 mg/dl.
# The model of SAH involved a single endovascular puncture of the ICA using a 4-0 filament sharpened at its tip, followed by reperfusion of the ICA (Schwartz et al. 2000). With temporary clips on the CCA and ICA, the ECA was divided proximal to the ligature, the 4-0 nylon filament was introduced through the stump of the ECA into the ICA, arterial puncture was produced at ˜19 mm under LDF monitoring, the filament was withdrawn, the ECA stump was ligated and flow was restored to the CCA/ICA. Unlike the widely used method in which a 3-0 filament is used to produce severe hemorrhage associated with high mortality, the method used here utilizing a 4-0 filament produced mild-tomoderate SAH associated with low mortality. We monitored rCBF using LDF to confirm the sharp drop after puncture and filament withdrawal, and to assure the full recovery in rCBF within 10-15 min of restoration of flow in the ICA, making ischemic injury less likely than in versions of the model in which the CCA is ligated.
# Controls received the same volume of vehicle in the same way. […] The osmotic mini-pumps delivered 0.5 μl/hr, yielding infusion doses of 200 ng/hr.
# Rats were euthanized 24 hr after induction of SAH. In some cases, fresh tissues were collected for immunoblot. In other cases, animals underwent perfusion fixation for immunohistochemistry or in situ hybridization.
# Immunohistochemistry. Cryosections (10 μm) were post-fixed with 4% formaldehyde and immunolabeled using standard techniques. After permeabilizing (0.3% Triton X-100 for 10 min), sections were blocked (2% donkey serum for 1 hr; Sigma D-9663), then incubated with primary antibody directed against: SUR1 (1:200; SC-5789; Santa Cruz Biotechnology); NeuN (1:100; MAB377; Chemicon, CA); GFAP (1:500; CY3 conjugated; C-9205; Sigma, St. Louis, Mo.); vonWillebrand factor (1:200; F3520, Sigma); TNFα (1:100; Santa Cruz); p65 (1:100; Santa Cruz); FITC-conjugated IgG (1:200; Santa Cruz); ZO-1 (1:100; Zymed Laboratories). Fluorescent-labeled, species appropriate secondary antibodies (Molecular Probes, OR) were used for visualization. Omission of primary antibody and competition with antigenic peptides, when available, were used as negative controls. Fluorescent signals were visualized using epifluorescence microscopy (Nikon Eclipse E1000).
# For quantitative immunohistochemistry, all sections were immunolabeled as a single batch, as previously described (Gerzanich et al. 2003). All images were collected using uniform parameters of magnification and exposure. Segmentation analysis was performed by computing a histogram of the pixel intensity for equal regions of interest (ROI) using IP Lab software, with the ROI confined to the 400 μm of parenchymal tissue dorsal to the pia of the inferomedial cortex ipsilateral to the SAH. For IgG, the overall pixel intensity of the ROI was determined and the background was subtracted. […]
# [4] = loading dose 10 μg/kg i.p. plus 200 ng/hr s.q.; cited from earlier work
# [5] = 1, 3 and 7 d post-SCI, vs vehicle
smiles,measurement,setting,value
COc1ccc(Cl)cc1C(=O)NCCc1ccc(S(=O)(=O)NC(=O)NC2CCCCC2)cc1 [glibenclamide],performance on inclined plane,[1]; [5],significantly better performance
same,vertical exploratory behavior (rearing),[1]; [5],significantly better performance
same,"vertical exploration (rearing), time during 3-min observation","[1]; 1 d post-SCI, 200 ng/h s.q.",42 ± 7 s
same,ipsilateral paw placement,"[1]; 1 d post-SCI, vs vehicle",significantly better performance
same,general mobility,"[1]; post-SCI, vs vehicle-treated rats generally not mobile",typically ambulatory and often exhibited proficient exploratory behavior
same,time required to achieve 90% steady-state serum drug levels,[2],3 h
same,hippocampus on Nissl stained sections,rats with percussion-TBI,"sparing of hippocampus, including sparing of neurons in CA1, CA3 and dentate gyrus regions"
same,lesion area on coronal sections at epicenter of injury,"rats with percussion-TBI; control 8.2±1.3, P=0.025",4.4±0.8 mm^2
same,protein (IgG) endocytosis by neurons,[3],essentially absent
same,caspase-3 activation in the PCA,[3]; 5 rats,absent in ⅘ rats and was minimal in the fifth
same,ZO-1 localization in PCA endothelium,[3]; vs vehicle,significantly reduced cytoplasmic localization and restored intercellular localization
same,caspase-3 activation in parenchymal tissues,[3]; vs vehicle,significantly reduced
same,"local inflammation (TNFα, p65 immunolabeling)",[3]; vs vehicle,significantly reduced
same,reactive astrocytosis (GFAP immunolabeling),[3]; vs vehicle,significantly reduced
same,effect on serum glucose,[4],minimal effects
same,estimated serum concentration,[4],< 10 nM
